Reference: paper PMC12147183, “Lacritin cleavage-potentiated targeting of iron - respiratory reciprocity promotes bacterial death” (The Journal of Biological Chemistry, 2025)
“Also recorded” adds a separate entry of the source. Peptide text beside a SMILES is read from it. * marks the point of attachment. FITC = O=C1OC2(c3ccc(O)cc3Oc3cc(O)ccc32)c2ccc(NC(=S)*)cc21; Ahx = NCCCCCC(=O)O

Legend:
P. aeruginosa PA14 [1] = settings: 0-25 μM FITC-N-104 or 2-25 μM Janelia Fluor 549-tagged N-104, PA14 10^6 cfu/ml, 8 h
Method: After overnight incubation at 37 °C, plates were analyzed on a ChemiDoc XRS (Bio-Rad).

P. aeruginosa PA14 [2] = assay type: cell-based, Pseudomonas aeruginosa
Method: Janelia Fluor 549-N-104 and -C-95 (each 25 μg) in 20 μl of M9 minimal salts were incubated with ∼3.75 × 10^9 cfu of pelleted PA14 cells for 1 h at 35 °C, washed four times with filtered 10 mM Na2HPO4, 1.8 mM KH2PO4, 2.7 mM KCl, 137 mM NaCl (pH 7.2), and then treated with 5 μM SYTOX Green to assess membrane integrity. Stained cells (1 μl) were immobilized on coverslip supported 1.5% agarose pads for imaging on a custom-built inverted fluorescence microscope, using 1 W/cm^2 of 561-nm laser light (Genesis MX561 MTM, Coherent) to excite Janelia Fluor 549 Maleimide and 4 mW/cm^2 of 488-nm laser light (Coherent) to excite SYTOX Green. Emitted light collected using an oil immersion objective (PLSAPO, 60×, 1.4 NA) was passed through a filter set (zt440/488/561rpc, Chroma Technology) to block excitation light with separation of Janelia Fluor 549 Maleimide and SYTOX Green emission using a diochroic beam splitter (T5g0lpxr-uf3, Chroma Technology) as collected on separate sCMOS cameras (ORCA-Flash 4.0 V2, Hamamatsu Photonics). Brightfield images were collected to obtain the total number of cells in each field of view.

wild-type E. coli K-12 = assay: Alamar Blue viability assay of wild-type E. coli K-12; assay type: cell-based, Escherichia coli; settings: 100 μM, wild-type E. coli K-12 10^6 cfu/ml, 37 °C, hourly, n = 3
P. aeruginosa PA14 [3] = assay: PA14 viability (Alamar Blue, CFU) with exogenous polyamines; assay type: cell-based, Pseudomonas aeruginosa; settings: Alamar Blue and CFU; for protection of PA14 against 5 μM N-104 killing: 5 to 50 μM exogenous polyamine, n = 3
Fe^2+ uptake by PA14 = assay type: cell-based, Pseudomonas aeruginosa; settings: 25 μM peptide, n = 3
Method: Iron depletion was induced in PA14 cells (5 × 10^9 cfu in 10 ml 10 mM Na2HPO4, 1.8 mM KH2PO4, 2.7 mM KCl, 137 mM NaCl (pH 7.2) by treatment with the chelator 1 mM 2,2′-bipyridyl at room temperature for 1 h. After washing twice with 0.9% NaCl, cells were suspended in 1 ml of 1 mM Na2HPO4, 0.18 mM KH2PO4, 0.27 mM KCl, 13.7 mM NaCl for treatment without or with 1, 10, 25, 50 or 100 μM of N-104 (or negative control N-80/C-25 or C-95) for 45 min at 35 °C, incubated at the same temperature for 15 min with 100 μM FeSO4 and 13 mM ascorbic acid, washed twice with 1 mM Na2HPO4, 0.18 mM KH2PO4, 0.27 mM KCl, and 13.7 mM NaCl, and pelleted at 12,000g. The ferrozine assay ([54]) was subsequently employed. Briefly, cells in pellets were lysed with 20 μl of 50 mM NaOH, partially neutralized with 20 μl of 10 mM HCl, subjected to iron release with 20 μl of acidified 0.29 M KMnO4 for 30 min at 80 °C, cooled to room temperature, incubated with 7 μl of 30 mM ferrozine, 1.1 μl of 180 mM neocuproine, 15 μl of 5 M ammonium acetate and 15 μl of 1 M ascorbic acid for 30 min at room temperature and then centrifuged at 21,000g for 10 min. Cellular iron uptake could then be assessed from the supernatant OD565. Single-molecule transport per cell was estimated using a standard curve.

[4] = tested on: ^14C-spermidine uptake by PA14; assay type: cell-based, Pseudomonas aeruginosa; settings: 25 μM peptide, n = 6
Method: 100 μl aliquots (0.8 × 10^8 cfu) of PA14 cell cultures in 1 mM Na2HPO4, 0.18 mM KH2PO4, 0.27 mM KCl, 13.7 mM NaCl without or with 1, 10, 25, 50 or 100 μM N-104 (or N-80/C-25 or C-95) for 45 min at 35 °C were incubated with 1 μl of 10 mM [1,4-^14C]putrescine (0.1 mCi/ml; ARC-0245–250, American Radiolabeled Chemicals) or [1,4-^14C]spermidine (0.1 mCi/ml; ARC-3138–50, American Radiolabeled Chemicals) for 15 min at 35 °C. Cell pellets were washed four times with 100 μl of 10 mM Na2HPO4, 1.8 mM KH2PO4, 2.7 mM KCl, 137 mM NaCl (pH 7.2) and then transferred to 4 ml of scintillation fluid (1200.437, PerkinElmer OptiPhase HiSafe 3) for analysis in a Beckman Coulter LS6500. Also assessed was radioactivity from the last wash. Single-molecule transportation per cell was estimated using standard curves for each radiolabeled polyamine.

P. aeruginosa PA14 [5] = assay: SYTOX Orange PA14 membrane disruption assay; settings: 25 μM peptide, PA14 10^7 cfu/ml, 1 h at 35 °C, 5 μM SYTOX Orange; positive control 70% ethanol
[6] = for solubility in common solvents: water, DMSO, methanol, isopropanol, acetonitrile
Description: Guided by TMHMM v 2 and DeepTMHMM 1.0.24, we synthesized peptides corresponding to PotH’s predicted outer loops 2 ([…]) and outer loop 3 ([…]). Fifty-three amino acid PotH's OL1 was not synthesized with predicted poor solubility. We also synthesized peptides corresponding to FeoB's predicted outer loop 1 ([…]), outer loop 2 ([…]), outer loop 3 ([…]), and outer loop 5 (ATFAA). […] For these, all amino and carboxy termini were acetylated and amidated, respectively (Supporting Information Reagents Table). All synthesized peptides were aliquoted and stored lyophilized at −80 °C in a dry environment.

P. aeruginosa PA14 [7] = assay: Imaging flow cytometry of peptide entry; assay type: cell-based, Pseudomonas aeruginosa; settings: 100 or 10 μM, PA14 10^6 cfu/ml, 1 h at 35 °C, trypsin EDTA to remove surface peptide, no ethanol, n = 3
Method: 0.5 ml of 10^6 cfu/ml PA14 cells in 1 mM Na2HPO4, 0.18 mM KH2PO4, 0.27 mM KCl, and 13.7 mM NaCl (pH 7.2) were incubated for 1 h at 35 °C with 10 or 100 μM FITC-N-104 (without, or as a positive control with 70% ethanol) or with the negative control FITC-C-95. Cells were subsequently washed in the same buffer, pelleted, treated with 100 μl of 0.25% trypsin EDTA (Gibco, 25200-056) for 5 min at 35 °C to remove surface-attached peptide, further washed and pelleted, resuspended in 100 μl of the same buffer for fixation with an equal volume of 8% formaldehyde (18,814, Polysciences Inc) and then imaged using an Amnis Imagestream X Mark II imaging flow cytometer. 500 to 1000 counts were analyzed per replicate. To ensure the exclusion of debris and out-of-focus cells, Gradient-RMS (average slope spanning three pixels in an image; 0–100) versus Area (number of pixels in an image reported in square microns; 1–200) of channel one was plotted for each experiment with more than 85% of the data falling within the cells-in-focus gate. The fluorescence intensity values of FITC-positive cells (Intensity-MC, channel 2) were analyzed using the IDEAS version 6.2 program (Amnis, Seattle WA) and plotted as histograms with a bin number of 100. FITC-positive cells were selected based on histograms generated from the positive control sample.

Compound: JaneliaFluor-CAQKLLKKFSLLKPWA [JanFl-N-104, Cys(N)-N-104 conjugated to Janelia Fluor 549 maleimide]
- effect of tagging on N-104 activity in CFU assay (P. aeruginosa PA14 [1]): partially affected
- cellular staining pattern (P. aeruginosa PA14 [2]): peripheral internal ring

Compound: CC1(C)S[C@@H]2[C@H](NC(=O)[C@H](N)c3ccccc3)C(=O)N2[C@H]1C(=O)O [ampicillin]
- bacterial metabolic activity (Alamar Blue) (wild-type E. coli K-12): inhibitory

Compound: NCCCCN [Putrescine]
- protection of PA14 against 5 μM N-104 killing (P. aeruginosa PA14 [3]): did not offer the same benefit
- toxicity to PA14 (P. aeruginosa PA14 [3]; 100-2000 µM polyamine): nor was toxic at high concentrations

Compound: CSCC[C@H](NC(=O)CNC(=O)[C@H](CCCCN)NC(=O)CNC(=O)[C@H](C)NC(=O)[C@H](CCCCN)NC(=O)[C@H](C)NC(C)=O)C(=O)N[C@@H](Cc1c[nH]cn1)C(=O)NCC(=O)NCC(=O)N[C@H](C(=O)N1CCC[C@H]1C(=O)NCC(=O)NCC(N)=O)C(C)C [N-80/C-25, reference compound] (Ac-AKAGKGMHGGVPGG-NH2)
- effect on exogenous Fe^2+ uptake (Fe^2+ uptake by PA14): partially inhibitory
- effect on ^14C-spermidine uptake [4]: also inhibitory
- membrane disruption (SYTOX Orange uptake) (P. aeruginosa PA14 [5]): not membrane disruptive

Compound: NCCCCNCCCN [spermidine]
- protection of PA14 against 5 μM N-104 killing (P. aeruginosa PA14 [3]): increasingly protected
- concentration at which toxic to PA14 (P. aeruginosa PA14 [3]; 100-2000 µM polyamine): exceeding 100 μM

Compound: CC(=O)NCC(=O)N[C@@H](C)C(=O)N[C@@H](Cc1ccccc1)C(=O)N[C@@H](Cc1ccccc1)C(=O)NCC(=O)N[C@@H](CCC(N)=O)C(=O)NCC(=O)NCC(=O)N[C@@H](C)C(N)=O [FeoB OL3 peptide] (Ac-GAFFGQGGA-NH2)
- solvents in which solubility was identified [6]: ammonia water and acetic acid
- solubility in common solvents [6]: not water, DMSO, methanol, isopropanol or acetonitrile soluble

Compound: JaneliaFluor-CEDASSDSTGADPAQEAGTSKPNEE [JanFl-C-95, Cys(N)-C-95 conjugated to Janelia Fluor 549 maleimide, reference compound]
- cellular staining pattern (P. aeruginosa PA14 [2]): lacked staining

Compound: CC(C)C[C@H](NC(=O)[C@H](CCCCN)NC(=O)[C@H](CCC(N)=O)NC(=O)[C@H](C)NC(=O)CCCCCNC(=S)Nc1ccc2c(c1)C(=O)OC21c2ccc(O)cc2Oc2cc(O)ccc21)C(=O)N[C@@H](CC(C)C)C(=O)N[C@@H](CCCCN)C(=O)N[C@@H](CCCCN)C(=O)N[C@@H](Cc1ccccc1)C(=O)N[C@@H](CO)C(=O)N[C@@H](CC(C)C)C(=O)N[C@@H](CC(C)C)C(=O)N[C@@H](CCCCN)C(=O)N1CCC[C@H]1C(=O)N[C@@H](Cc1c[nH]c2ccccc12)C(=O)N[C@@H](C)C(=O)O [FITC-N-104] ({FITC-Ahx}-AQKLLKKFSLLKPWA-OH)
- intracellular FITC fluorescence (P. aeruginosa PA14 [7]): substantial intracellular; also recorded: In contrast to FITC-C-95, substantial intracellular FITC-N-104 fluorescence was apparent at either 100 or 10 µM concentrations

Compound: CC[C@H](C)[C@H](NC(C)=O)C(=O)N[C@@H](CC(N)=O)C(=O)N[C@H](C(=O)NCC(=O)NCC(=O)N[C@@H](C)C(=O)N[C@@H](CC(C)C)C(=O)N[C@@H](CCC(N)=O)C(=O)N1CCC[C@H]1C(N)=O)[C@@H](C)CC [FeoB OL1 peptide] (Ac-INIGGALQP-NH2)
- solvents in which solubility was identified [6]: formic or acetic acid
- solubility in common solvents [6]: not water, DMSO, methanol, isopropanol or acetonitrile soluble
